{
  "source": "patent US11168091B2",
  "about": "“Quantification and preparation of pharmaceutical grade cantharidin” (priority 2015, dated 2021)",
  "origin": "cited, not measured here",
  "settings": "properly stored in a cool and dry place away from strong light and heat; crude preparation of Table 6",
  "data": [
    {"smiles": "CC12C(=O)OC(=O)C1(C)C1CCC2O1", "note": "(stereo not shown) [crude cantharidin, 1,2-Dimethyl-3,6-epoxyperhydrophthalic anhydride]", "values": [
      {"measurement": "shelf life", "result": 3, "unit": "years"}
    ]}
  ]
}
